Laboratory results reported in paper PMC11950852, “Diversity Scale of Library Matters: Impact of mRNA Library Diversity Scales on the Discovery of Macrocyclic Peptides Targeting a Protein by the RaPID System” (ACS Central Science, 2025).
Read-outs that look alike come from different tables or passages of the source. Where a SMILES comes first, the peptide text is derived from it. Bridges are numbered along the chain shown (N, C = ends).

How the values were obtained:
[1] = biological target: cMET; settings: cited from earlier work
Description: To answer our questions raised in the introduction, we chose the ectodomain of MET fused to Fc as a selection target for two reasons. (1) Since we previously performed the RaPID campaign using a thioether-macrocyclic peptide library and successfully identified potent ligands with the range of KD of 2–20 nM (Table S1A), this target has been validated as a reliable protein to reproduce the selection experiment.[22] (2) At the time when the selection was performed previously, the NGS technology was unavailable in our laboratory, and thereby the sequences were determined by ∼40 clones available fr ... || page 9: Table S1A. Representative peptide sequences discovered by RaPID system. Residues engaged in thioether- macrocyclization are marked with asterisks. mRNA display (RaPID system) Diversity scale: >1012 Screening KD IC50 Library design/ Consensus motif/ Variants Reference Target (nM) (nM) Note Peptide sequence DW*X2MeSX2MeF-MeG/X- E6AP 0.6 DW*X8-15C* 6 (32) XMeFPC* 92 LY*WIX2TWPXVXRXC* 2 Akt2 L/DY*X4-12C* (33) 110 LY*ILVRNRXLRVDC* 2 3.8 LY*SNFRI-LysTfa-RYSNSSC* 21 SIRT2 L/DY*-Xn-LysTfa-XnC* (34) 3.7 DY*HDYRI-LysTfa-RYHTYPC* 16 94 LF*VVVSTDPWVNGLYIDC* 2 8 LF*IGHYRVKVHPISLERC* 1 VEGFR2 L/DF*X ...

[2] = biological target: Fc-fused MET (His-/hFc-tagged human MET ectodomain) (Homo sapiens, UniProt P08581); test: SPR binding kinetics of selected macrocyclic peptides to Fc-fused MET
[3] = biological target: T1, ectodomain of MET (hepatocyte growth factor receptor) fused to Fc (UniProt P08581 25-932); test: SPR; macrocyclic peptides on MET; concentration-dependent sensorgrams fitted by a 1:1 binding model; settings: both partners purified
T1 construct: MET, hepatocyte growth factor receptor, a receptor tyrosine kinase; ectodomain; also called MET-Fc; Fc-tagged MET

[4] = biological target: T2, ectodomain of MET fused to Fc (UniProt P08581 25-932); test: SPR
T2 chain: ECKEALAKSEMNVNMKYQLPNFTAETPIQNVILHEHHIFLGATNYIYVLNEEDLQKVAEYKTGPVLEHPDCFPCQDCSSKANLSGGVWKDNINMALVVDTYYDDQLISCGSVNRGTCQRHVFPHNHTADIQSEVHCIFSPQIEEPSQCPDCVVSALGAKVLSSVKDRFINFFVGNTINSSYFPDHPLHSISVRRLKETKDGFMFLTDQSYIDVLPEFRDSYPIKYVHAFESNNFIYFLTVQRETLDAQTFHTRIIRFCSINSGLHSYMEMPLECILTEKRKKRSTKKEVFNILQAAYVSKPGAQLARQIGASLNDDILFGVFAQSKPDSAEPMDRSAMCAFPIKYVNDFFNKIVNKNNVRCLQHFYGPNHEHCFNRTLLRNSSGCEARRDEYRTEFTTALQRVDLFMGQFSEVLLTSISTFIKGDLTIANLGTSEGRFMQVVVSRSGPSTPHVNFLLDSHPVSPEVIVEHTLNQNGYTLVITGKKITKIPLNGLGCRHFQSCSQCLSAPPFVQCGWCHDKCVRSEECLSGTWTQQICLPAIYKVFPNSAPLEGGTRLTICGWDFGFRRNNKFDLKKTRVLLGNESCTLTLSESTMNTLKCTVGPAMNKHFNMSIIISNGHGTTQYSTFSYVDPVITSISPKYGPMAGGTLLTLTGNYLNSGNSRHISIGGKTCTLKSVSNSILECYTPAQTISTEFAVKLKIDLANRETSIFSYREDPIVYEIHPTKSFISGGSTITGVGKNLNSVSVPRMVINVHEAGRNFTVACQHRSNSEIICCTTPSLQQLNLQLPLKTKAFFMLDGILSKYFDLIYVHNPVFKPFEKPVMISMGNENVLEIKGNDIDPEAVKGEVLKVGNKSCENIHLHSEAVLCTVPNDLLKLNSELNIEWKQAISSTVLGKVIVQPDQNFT

[5] = biological target: T1, ectodomain of MET (hepatocyte growth …); test: SPR; macrocyclic peptides on MET; concentration-dependent sensorgrams fitted by a 1:1 binding model; settings: both partners purified; remark: listed apart in the source
[6] = library L/DY*X4-15C*, mRNA display (RaPID system), ref (16), read-out: KD (Table S1A, screening target cMET)

Question: With “DY*RQFNRRTHEVWNLDC* (sidechain bridge or staple)” as the molecule, how does the Kd [1, 6] read?
Answer: 2.4 nM

Question: Which kd ([2]; SPR conditions as E1) does the source give for `CC[C@H](C)[C@@H]1NC(=O)[C@H](Cc2ccc(O)cc2)NC(=O)CSC[C@@H](C(=O)NCC(N)=O)NC(=O)[C@H]([C@@H](C)O)NC(=O)[C@H]([C@@H](C)CC)NC(=O)[C@H](Cc2ccccc2)NC(=O)[C@H](CCCNC(=N)N)NC(=O)[C@H](Cc2c[nH]c3ccccc23)NC(=O)[C@H](CC(N)=O)NC(=O)[C@@H]2CCCN2C(=O)[C@H](CO)NC(=O)[C@H](CC(N)=O)NC(=O)[C@H](Cc2ccccc2)NC(=O)[C@H](CCC(=O)O)NC(=O)[C@H](CC(N)=O)NC(=O)[C@H](Cc2c[nH]c3ccccc23)NC(=O)[C@H](CO)NC1=O` [aML5, reference compound] ({CH2CO}-YISWNEFNSPNWRFITCG-NH2; thioether N-17) here?
Answer: 0.00606 s⁻¹

Question: And the kon ([2]; pH 7.4, read-out: ka)?
Answer: 539000 M⁻¹ s⁻¹

Question: And the kon ([2]; read-out: ka, Measure 1)?
Answer: 371000 M⁻¹ s⁻¹

Question: What about the kon ([2]; read-out: ka, Measure 2) of the same molecule?
Answer: 405000 M⁻¹ s⁻¹

Question: And the Kd ([1]; previously determined value, read-out: KD (previous RaPID campaign))?
Answer: 19 nM

Question: With “DY*WYYAWDQTYKAFPC* (sidechain bridge or staple)” as the molecule, how does the Kd [1, 6] read?
Answer: 2.3 nM

B1: macrocyclic peptide 10-5 (peptide)
chain: {CH2CO}-YLLWHKYDNKDWVYVDCG-NH2
modifications: thioether N-17
SMILES: CC(C)C[C@@H]1NC(=O)[C@H](Cc2ccc(O)cc2)NC(=O)CSC[C@@H](C(=O)NCC(N)=O)NC(=O)[C@H](CC(=O)O)NC(=O)[C@H](C(C)C)NC(=O)[C@H](Cc2ccc(O)cc2)NC(=O)[C@H](C(C)C)NC(=O)[C@H](Cc2c[nH]c3ccccc23)NC(=O)[C@H](CC(=O)O)NC(=O)[C@H](CCCCN)NC(=O)[C@H](CC(N)=O)NC(=O)[C@H](CC(=O)O)NC(=O)[C@H](Cc2ccc(O)cc2)NC(=O)[C@H](CCCCN)NC(=O)[C@H](Cc2c[nH]cn2)NC(=O)[C@H](Cc2c[nH]c3ccccc23)NC(=O)[C@H](CC(C)C)NC1=O
Question: For B1, which Kd [3] is on record?
Answer: 19.5 nM

Question: And the koff [4]?
Answer: 0.00694 s⁻¹

B2: macrocyclic peptide 12-2 (peptide)
chain: {CH2CO}-YYSWSGNVSESVKWNSCG-NH2
modifications: thioether N-17
SMILES: CC(C)[C@@H]1NC(=O)[C@H](CC(N)=O)NC(=O)CNC(=O)[C@H](CO)NC(=O)[C@H](Cc2c[nH]c3ccccc23)NC(=O)[C@H](CO)NC(=O)[C@H](Cc2ccc(O)cc2)NC(=O)[C@H](Cc2ccc(O)cc2)NC(=O)CSC[C@@H](C(=O)NCC(N)=O)NC(=O)[C@H](CO)NC(=O)[C@H](CC(N)=O)NC(=O)[C@H](Cc2c[nH]c3ccccc23)NC(=O)[C@H](CCCCN)NC(=O)[C@H](C(C)C)NC(=O)[C@H](CO)NC(=O)[C@H](CCC(=O)O)NC(=O)[C@H](CO)NC1=O
Question: With B2 as the molecule, how does the Kd [5] read?
Answer: 8.67 nM

B3: macrocyclic peptide 10-6 (peptide)
chain: {CH2CO}-YWWYYWYRDEYLWRTRCG-NH2
modifications: thioether N-17
SMILES: CC(C)C[C@@H]1NC(=O)[C@H](Cc2ccc(O)cc2)NC(=O)[C@H](CCC(=O)O)NC(=O)[C@H](CC(=O)O)NC(=O)[C@H](CCCNC(=N)N)NC(=O)[C@H](Cc2ccc(O)cc2)NC(=O)[C@H](Cc2c[nH]c3ccccc23)NC(=O)[C@H](Cc2ccc(O)cc2)NC(=O)[C@H](Cc2ccc(O)cc2)NC(=O)[C@H](Cc2c[nH]c3ccccc23)NC(=O)[C@H](Cc2c[nH]c3ccccc23)NC(=O)[C@H](Cc2ccc(O)cc2)NC(=O)CSC[C@@H](C(=O)NCC(N)=O)NC(=O)[C@H](CCCNC(=N)N)NC(=O)[C@H]([C@@H](C)O)NC(=O)[C@H](CCCNC(=N)N)NC(=O)[C@H](Cc2c[nH]c3ccccc23)NC1=O
Question: For B3, which Kd [3] is on record?
Answer: 219 nM
